{
  "source": "patent US7288654B2",
  "about": "“Fused-ring pyridine derivative, process for producing the same, and use” (Takeda Pharmaceutical Company Ltd, priority 2003, dated 2007)",
  "data": [
    {"molecular_target": "T1, human CCR5 (Homo sapiens, UniProt P51681)", "T1 construct": "expressed in transfected cells", "T1 sequence (P51681 whole entry)": "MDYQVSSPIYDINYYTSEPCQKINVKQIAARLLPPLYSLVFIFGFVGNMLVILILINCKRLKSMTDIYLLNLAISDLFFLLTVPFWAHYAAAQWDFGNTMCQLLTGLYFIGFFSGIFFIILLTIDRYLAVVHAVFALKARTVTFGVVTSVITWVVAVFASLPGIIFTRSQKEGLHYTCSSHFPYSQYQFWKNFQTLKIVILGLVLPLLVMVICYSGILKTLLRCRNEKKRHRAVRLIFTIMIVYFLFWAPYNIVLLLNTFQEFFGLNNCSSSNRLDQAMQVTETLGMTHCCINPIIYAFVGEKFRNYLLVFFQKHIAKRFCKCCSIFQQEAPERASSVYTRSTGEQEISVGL", "assay": "[125I]-RANTES binding inhibition in CCR5/CHO cells (CCR5 antagonist activity)", "conditions": "test compound 1 μM, 100 pM [125I]-RANTES, room temperature, 40 minutes", "protocol": "(1) Cloning of Human CCR5 Chemokine Receptor\nCloning of a CCR5 gene was conducted from human spleen cDNA by a PCR method. Using 0.5 ng of spleen cDNA (Toyobo Co., Ltd., QUICK-Clone cDNA) as a template, the PCR reaction was carried out in a DNA Thermal Cycler 480 (Perkin Elmer) using a TaKaRa EX Taq (Takara Shuzo Co., Ltd.) (reaction conditions: 30 cycles of treatments at 95° C. for 1 minute, at 60° C. for 1 minute, and at 75° C. for 5 minutes) by adding 25 pmol of primers, SEQ ID NO. 1 (sequence length: 34; sequence type: nucleic acid; number of chains: a single chain; topology: linear; sequence kind: other nucleic acid, synthetic DNA) described in Experimental Example (1) of WO 99/32100, and SEQ ID NO. 2 (sequence length: 34; sequence type: nucleic acid; number of chains: a single chain; topology: linear; sequence kind: other nucleic acid, synthetic DNA) described in Experimental Example (1) of WO 99/32100, respectively, which were prepared by referring to the base sequence of the CCR5 gene described by Samson et al. (Biochemistry 35 (11), 3362-3367 (1996)). The PCR products were subjected to agarose gel electrophoresis to collect DNA fragments of about 1.0 kb. Then, the CCR5 gene was cloned using an Original TA Cloning Kit (Funakoshi Co., Ltd.).\n(2) Preparation of Plasmid for Expression of Human CCR5\nThe plasmids obtained above were digested with restriction enzymes XbaI (Takara Shuzo Co., Ltd.) and BamHI (Takara Shuzo Co., Ltd.), and subjected to agarose gel electrophoresis to collect DNA fragments of about 1.0 kb. The DNA fragments and a plasmid pcDNA3.1 (Funakoshi Co., Ltd.) for expression in animal cells, which was previously digested with XbaI and BamHI, were mixed and ligated by DNA Ligation Kit Ver.2 (Takara Shuzo Co., Ltd.). Transformation of E. coli JM109 competent cells (Takara Shuzo Co., Ltd.) gave plasmid pCKR5.\n(3) Introduction of the Plasmid for Expression of Human CCR5 into CHO—K1 Cells and Expression Thereof\nCHO—K1 cells grown in a 750 ml tissue culture flask (Becton Dickinson) using Ham's F12 medium (Nihon Pharmaceutical Co., Ltd.) containing 10% fetal bovine serum (Lifetech Oriental) were collected from the flask by using 0.5 g/L trypsin-0.2 g/L EDTA (Lifetech Oriental). The cells were then washed with PBS (Lifetech Oriental), centrifuged (1000 rpm, 5 minutes), and suspended in PBS. Next, DNA was introduced into the cells using Gene Pulser (Bio-Rad Laboratories Inc.) under the following conditions. […]\nSubsequently, the Geneticin-resistant strains were cultured in the 96-well plate (Becton Dickinson), and then CCR5-expressing cells were selected from the resistant strains. […] The cells to which the ligand bound specifically, i.e., CCR5/CHO strains, were selected by measurement of radioactivity by γ-counter. […]", "units": {"Binding Inhibitory Ratio (%)": "%"}, "values": [
      {"smiles": "CCCCOCCOc1ccc(-c2cnc3c(c2)C=C(C(=O)Nc2ccc([S@@+]([O-])Cc4cncn4CCC)cc2)CCN3CC(C)C)cc1", "note": "[Compound 3, (S)-3-[4-(2-butoxyethoxy)phenyl]-9-isobutyl-N-[4-[[(1-propyl-1H-imidazol-5-yl)methyl]sulfinyl]aniline]-8,9-dihydro-7H-pyrido[2,3-b]azepine-6-carboxamide]", "Binding Inhibitory Ratio (%)": 100},
      {"smiles": "CCCCOCCOc1ccc(-c2cnc3c(c2)C=C(C(=O)Nc2ccc(CN(C)C4CCOCC4)cc2)CCN3CC(C)C)cc1", "note": "[Compound 4, 3-[4-(2-butoxyethoxy)phenyl]-9-isobutyl-N-[4-[[methyl(tetrahydro-2H-pyran-4-yl)amino]methyl]phenyl]-8,9-dihydro-7H-pyrido[2,3-b]azepine-6-carboxamide]", "Binding Inhibitory Ratio (%)": 100},
      {"smiles": "CCCCOCCOc1ccc(-c2cnc3c(c2)C=C(C(=O)Nc2ccc([S@@+]([O-])Cc4cncn4CCC)cc2)CCCN3CCC)cc1", "note": "[Compound 2, (S)-3-[4-(2-butoxyethoxy)phenyl]-10-propyl-N-[4-[[(1-propyl-1H-imidazol-5-yl)methyl]sulfinyl]phenyl]-7,8,9,10-tetrahydropyrido[2,3-b]azocine-6-carboxamide]", "Binding Inhibitory Ratio (%)": 93},
      {"smiles": "CCCCOCCOc1ccc(-c2cnc3c(c2)C=C(C(=O)Nc2ccc([S@@+]([O-])Cc4cncn4CCC)cc2)CCCN3CC(C)C)cc1", "note": "[Compound 1, (S)-3-[4-(2-butoxyethoxy)phenyl]-10-isobutyl-N-[4-[[(1-propyl-1H-imidazol-5-yl)methyl]sulfinyl]phenyl]-7,8,9,10-tetrahydropyrido[2,3-b]azocine-6-carboxamide]", "Binding Inhibitory Ratio (%)": 94}
    ]}
  ]
}
